Results published in US20260174677A1, “METHODS OF TREATING INSULIN RESISTANCE AND ASSOCIATED DISORDERS” (The University of Melboune, priority 2022, published 2026).

Assay: I.C.V. fluorosamine in mouse model of late-stage type-2 diabetes (HFHS plus low dose streptozotocin)
Assay type: in vivo
Conditions: I.C.V. daily for 14 days, HFHS plus low dose streptozotocin mice
Protocol: Mice were maintained on a 12 h light-dark cycle in a temperature-controlled high-barrier facility with free access to food and water per NHMRC Australian Code of Practice for the Care and Use of Animals. C57BL/6J and Balb/C mice were sourced from the Animal Resources Centre, Australian, whereas Agrp-IRES-Cre (Strain #:012899), db/db (strain #: 000697), Npy-GFP (Strain #:006417), Pomc-GFP (Strain #:009593), LSL-Cas9 (Strain #:028551), NZO (Strain #:002105) mice were sourced from Jackson Laboratories, USA. […]
Metabolic measurements were undertaken in the Melbourne Mouse Metabolic Phenotyping Platform (The University of Melbourne, Australia). […] The areas under glucose excursion curves were determined and expressed as mmol/1×min. Fasted (12 h fast) plasma insulin or glucose levels were determined using a Rat/Mouse Insulin ELISA (EZRMI-13K, Merck Millipore, CA) or an Accu-Check glucometer respectively. The HOMA-IR was calculated using the equation [(glucose×insulin)/405]. Adiposity was measured using TD-NMR minispec (Bruker Optics Inc., Billerica, MA). […]

Question: With `CC(=O)NC1C(OC(C)=O)OC(COC(C)=O)[C@@H](F)C1OC(C)=O` (stereo partly shown) [fluorosamine, per-O-acetylated-4-F-N-acetylglucosamine] as the compound, how does the “remission of metabolic disease (daily blood glucose, glucose tolerance)” value read?
Answer: promote the remission of metabolic disease
